The text below walks through data of PubChem BioAssay (NCI).

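Five concentrations, 48 hours, 96-well plates. Definition used: TGI = concentration required for complete inhibition of growth.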

Common to all, as to assay: growth of human tumour cells (NCI), 48 h
Test [1] deals with SNB-19 CNS.
The subject of test [2] is EKVX NSCLC.
The subject of test [3] is HCT-116 colon.
In test [4] the test system is UACC-62 melanoma.
Test [5] has as its system SNB-75 CNS.
The test system of test [6] is SR leukemia.
Test [7] deals with HCT-15 colon.
The test system of test [8] is PC-3 prostate.
Test [9] concerns SK-MEL-2 melanoma.
In test [10] the test system is NCI-H23 lung.
Test [11] relates to HOP-62 NSCLC.
In test [12] the test system is RPMI-8226 leukemia.
The test system of test [13] is A549 NSCLC.
The subject of test [14] is TK-10 renal.
Test [15] has as its system U251 CNS.
Test [16] has as its system UO-31 renal.
The subject of test [17] is T-47D breast.
The test system of test [18] is A498 renal.
Test [19] concerns SK-MEL-5 melanoma.
In test [20] the test system is HCC-2998 colon.

Turning to `Cc1ccc(O)c(C2=CC3=NNC(=O)C3C(c3cccc(Cl)c3)C2)c1` (centres undefined), the TGI was over 100 µM in test [1]; over 100 µM in [2]; over 100 µM in [3]; 86.6 µM in [4]; 76.2 µM in test [5]; over 100 µM in [6]. In addition, the TGI in [7] was over 100 µM; in test [8], over 100 µM; in [9], 86.2 µM; in test [10], over 100 µM; in [11], over 100 µM; in test [12] it was 75.9 µM. Besides, the TGI was over 100 µM in test [13]; 57.5 µM in [14]; over 100 µM in test [15]; over 100 µM in [16]; over 100 µM in [17]; over 100 µM in [18]. Also, the TGI in test [19] is over 100 µM; in test [20] it was 44.5 µM.

Take `CC12CCCCC1=C(F)C(F)(F)S2` (centres undefined): the TGI is over 100 µM in test [1]; over 100 µM in test [2]; 58.5 µM in test [3]; over 100 µM in test [4]; over 100 µM in test [5]; 28 µM in test [6]. Besides, the TGI was 76.7 µM in test [7]; over 87.2 µM in test [8]; over 100 µM in test [9]; over 100 µM in test [10]; over 100 µM in test [11]; 37.7 µM in test [12]. Further, the TGI in [13] was over 100 µM; in [14], 69.9 µM; in [15] it was over 100 µM; in test [16] it was 24.4 µM; in test [17], 74.5 µM; in test [18], over 100 µM. Besides, the TGI in [19] is over 91.1 µM; in test [20], over 86.5 µM.

Regarding `CCOC(=O)C(=CNc1ccc(N(C2=NCC(C)S2)c2ccc(F)c(Cl)c2)cc1)C(=O)OCC` (centres undefined), the TGI in test [1] worked out at 54.5 µM; in [2], 43.3 µM; in [3], 31.4 µM; in test [5] it was 43.7 µM; in test [6] it was 43.1 µM; in test [7] it was 36.1 µM. The TGI in test [8] was found to be 50.9 µM; in [9], 43.7 µM; in test [10], 33.9 µM; in [11] it was 52 µM; in test [12], 72.8 µM; in test [13] it was 86.1 µM. Further, the TGI in test [14] was determined as 57.1 µM; in test [15], 48.1 µM; in test [16], 38.6 µM; in [17] it was 49.5 µM; in test [18], 41.1 µM; in test [19], 36.7 µM. Further, the TGI in test [20] was 32 µM.

Turning to `Oc1ccc(/C=C/c2cccc(/C=C/c3ccc(O)c(O)c3)n2)cc1O`, the TGI in test [1] was 18.8 µM; in [2] it was 25.5 µM; in test [3], 20.1 µM; in [4] it was 18.6 µM; in [5] it was 16.5 µM; in test [6], 14.5 µM. Also, the TGI in test [7] was over 100 µM; in [8], over 100 µM; in test [9] it was 32.5 µM; in [11], over 100 µM; in test [12] it was 31.1 µM; in test [13], 22.2 µM. Besides, the TGI in [14] was 23.6 µM; in test [15], over 100 µM; in [16], 11.2 µM; in test [17], 7.06 µM; in test [18] it was 26.2 µM; in test [19], 15.8 µM. This compound also had a TGI in test [20] of 33.1 µM.

`COc1cc(/C=C2\C[C@H]3[C@@H]4CCC5=CC(=O)CC[C@]5(C)[C@H]4CC[C@]3(C)C2=O)cc(OC)c1OC`: the TGI in test [1] was over 100 µM; in test [2], over 100 µM; in [3], over 40.8 µM; in test [4] it was over 51.4 µM; in [5] it was over 89.4 µM; in [6] it was over 100 µM. In addition, the TGI in test [7] is over 100 µM; in test [8], over 43.2 µM; in test [9], over 59.8 µM; in [10], over 100 µM; in test [11], over 66.9 µM; in test [12], 9.7 µM. Moreover, the TGI in [13] was over 100 µM; in test [14], over 100 µM; in test [15], over 100 µM; in test [16], over 100 µM; in test [17], 9.09 µM; in [18], over 100 µM. For the same compound, the TGI in test [19] is 15.9 µM; in [20], over 100 µM.

On to `O=c1nc2ccc([N+](=O)[O-])cc2[n+]([O-])[nH]1`, for which the TGI in [1], in test [2], in test [3], in test [4], in [5] and in [6] was over 100 µM each time. The TGI in test [7], in test [8], in test [9], in [10], in test [11] and in test [12] was over 100 µM each time. The TGI in test [13], in test [14], in test [15], in [16], in test [17] and in [18] was over 100 µM in each case. Also, the TGI in [19] and in test [20] was over 100 µM each time.

As to `Clc1ccc(-c2cc(-c3cc4cc(Br)ccc4nc3Cl)on2)cc1`, the TGI in [1] is over 50 µM; in test [2], 36.2 µM; in [3], 30.7 µM; in test [4] it was over 50 µM; in test [5], over 50 µM; in test [6], over 50 µM. Further, the TGI in [7] was over 50 µM; in [8], over 50 µM; in test [9], 21.9 µM; in test [10], 46.5 µM; in test [11] it was over 50 µM; in [12] it was 41.7 µM. Also, the TGI is over 50 µM in [13]; over 50 µM in test [16]; over 50 µM in test [17]; 41.9 µM in [18]; 19.6 µM in test [19]; 23.9 µM in [20].

Take `CO/N=C\c1ccc2c(c1)Sc1ccccc1O2`: the TGI in test [1], in test [2], in test [3], in test [4], in [5] and in [6] was over 100 µM each time. Also, the TGI in test [7], in [8], in test [9], in [10], in test [11] and in test [12] was over 100 µM throughout. Further, the TGI in [13], in test [14], in [15], in test [16], in [17] and in [18] was over 100 µM each time. In addition, the TGI in test [20] was over 100 µM.

Regarding `CC(C)(C)C(=O)Oc1ccc(/C=C/C(=O)c2ccc(OC(=O)C(C)(C)C)cc2)cc1`, the TGI in test [1] is over 100 µM; in test [2], over 100 µM; in test [3], 71.4 µM; in test [4] it was over 100 µM; in test [5], over 100 µM; in [6], 76.4 µM. Moreover, the TGI in test [7], in [8], in test [9], in test [10], in test [11] and in test [13] was over 100 µM throughout. Further, the TGI in test [14], in test [15], in [17], in test [18], in test [19] and in test [20] was over 100 µM in each case.

For `O=C1/C(=C\c2ccc(Br)cc2)CCCc2ccccc21`, the TGI was found to be 32.6 µM in [1]; 39 µM in [2]; 24.8 µM in [3]; 26.5 µM in test [4]; 52.7 µM in [5]; 58 µM in [6]. Moreover, the TGI in test [7] was 24.8 µM; in [8], 55.4 µM; in test [9], 39.2 µM; in test [10] it was 36.4 µM; in [11], over 100 µM; in test [12], 48.8 µM. Moreover, the TGI was over 100 µM in [13]; 35.4 µM in [14]; 31.2 µM in [15]; 27.8 µM in [16]; 50.6 µM in [17]; 45.6 µM in test [18]. The same compound had a TGI in [20] of 30.1 µM.

Regarding `COc1cc(C(=O)Oc2c(C(C)=O)sc3c2c(=O)n(-c2ccccc2)c(=S)n3-c2ccccc2)cc(OC)c1OC`, the TGI in [1] was 68 µM; in test [2] it was 40.8 µM; in [3], 36.2 µM; in test [4] it was 47.6 µM; in [5] it was 50.1 µM; in [6] it was over 100 µM. In addition, the TGI was found to be 44.1 µM in [7]; 48.8 µM in [8]; 39.9 µM in test [10]; 67.1 µM in [11]; 59.9 µM in test [12]; 78.3 µM in test [13]. The TGI was over 100 µM in test [14]; 77.8 µM in [15]; 99.6 µM in test [17]; 28.3 µM in test [18]; 32.1 µM in test [19]; 55.6 µM in test [20].

In the case of `NC(=O)CSc1c2cc(O)ccc2nc2ccc(O)cc12`, the TGI in test [1], in test [2], in test [3], in test [4], in test [5] and in test [6] was over 10 µM throughout. The TGI in test [7], in [8], in [9], in [10], in [11] and in test [12] was over 10 µM each time. In addition, the TGI in test [13], in [14], in [15], in [17], in test [18] and in [19] was over 10 µM in each case. This compound had a TGI in test [20] of over 10 µM.

With `Nc1nccc(NCC2(CO)CC(OCc3ccccc3)C2)n1` (centres undefined), the TGI in test [2], in test [3], in test [4], in [5], in test [6] and in [7] was over 100 µM each time. In addition, the TGI in [8], in test [9], in test [10], in [11], in test [12] and in test [13] was over 100 µM throughout. For the same compound, the TGI in test [15] is over 100 µM; in test [16], over 100 µM; in test [17], 36.2 µM; in [18], over 100 µM; in [19] it was over 100 µM; in test [20] it was over 100 µM.

As to `FC(F)(F)c1ccc2c(c1)nc1n2C(c2c(Cl)cccc2Cl)SC1` (centres undefined), the TGI in test [1] is 48.7 µM; in test [2], 32.3 µM; in test [3] it was 29.5 µM; in [4], 34.1 µM; in [5] it was 45.1 µM; in [6] it was over 100 µM. Also, the TGI in [7] is 50.9 µM; in [8], 37.9 µM; in test [9], 40.8 µM; in test [10], 60.1 µM; in test [11], 31 µM; in [13] it was 38.6 µM. The TGI in test [14] stood at 47 µM; in test [15], 38.3 µM; in test [16], 31.8 µM; in test [17] it was 47.4 µM; in [18], 32.7 µM; in test [20], 40.1 µM.

On to `O=[N+]([O-])c1ccc(C2ON=C(c3ccccc3)N2C23CC4CC(CC(C4)C2)C3)cc1` (centres undefined), for which the TGI in test [1], in test [2], in [3], in [4], in test [5] and in test [6] was over 10 µM in each case. In addition, the TGI in [7], in [8], in [9], in test [10], in [11] and in test [12] was over 10 µM in each case. Also, the TGI in [13], in test [14], in test [15], in test [17], in test [18] and in test [19] was over 10 µM each time. Besides, the TGI in test [20] was over 10 µM.
